Data published in patent publication US6130220A, “Sulfamide-metalloprotease inhibitors” (Syntex (USA) Inc., priority 1999, dated 2000).
Where two headings read alike, the source gives them in different places.

What was measured:
Collagenase-I = target: T1, Collagenase-I (Homo sapiens, UniProt P03956); assay: MMP enzymatic assay, hydrolysis of MCA-Pro-Leu-Gly-Leu-DPA-Ala-Arg-NH2, Collagenase-I; type: biochemical
T1 construct: the collagenase-1 catalytic domain was released by treatment with 1 mM of aninophenylmercuric acetate; ubiquitin (cleaved yes); made in house; host or cells: E. coli
T1 sequence (P03956 100-269 limits assumed): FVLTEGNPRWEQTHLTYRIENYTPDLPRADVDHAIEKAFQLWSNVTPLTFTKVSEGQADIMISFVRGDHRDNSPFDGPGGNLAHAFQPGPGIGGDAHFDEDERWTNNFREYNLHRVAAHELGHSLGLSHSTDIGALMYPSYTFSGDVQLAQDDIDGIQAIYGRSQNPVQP

[1] = tested on: TNF-α release from Human Monomac 6 cells; assay: Inhibition of TNF release in vitro, Monomac 6 cells, LPS/PMA; type: cell-based; conditions: 2 h; for inhibition at 10 µM: MONO-MAC-6, 10 μM, read-out: TNF-α % inhibition, Conc. 10 μM
Experimental: The activity of compounds of this invention in inhibiting the TNF release was determined, using the a minor modification of the method described in Pradines-Figueres, A. and Raetz, C. R. H., J. Biol. Chem., 267 (32), 23261, (1992).
Human Monomac 6 cells (Ziegler-Heitbrock, H. W. L., et al., Int. J. Cancer, 41, 456, (1988)) were cultured at 37° C. in RPMI 1640 medium containing 10% fetal calf serum to a density of 1×10^5 cells/ml. 0.23 ml of these cells were placed in each well of a tissue culture plate and the cells were incubated for 15 min. The test compounds were dissolved in above mentioned medium and added and the incubation was continued for an additional 15 min. 10 μl of an lipopolysaccharide/phorbol-12-myristate-13-acetate (LPS/PMA) mixture was added such that the final concentration of lipopolysaccharide was 10 ng/ml and the final concentration of phorbol-12-myristate-13-acetate was 30 ng/ml. The cells were incubated for 2 h after which the plate was centrifuged and the medium was removed and analyzed for TNF content. The analysis was performed using a TNF Quantikine® Inmunoassay (R & D Systems, Minneapolis, Minn. 55413) by following the manufacturer's protocol.
The TNF-α inhibitory activity of test materials, i.e., the measure of the TNF-α content in the test group relative to the vehicle treated group (control group) was: […]

Collagenase-III = assay: MMP enzymatic assay, hydrolysis of MCA-Pro-Leu-Gly-Leu-DPA-Ala-Arg-NH2, Collagenase-III; type: biochemical; conditions: 37° C., pH 7.5, 2.5% DMSO
Experimental: The propeptide and catalytic domain portion of human collagenase-3 was expressed in E. Coli as an N-terminal fusion protein with ubiquitin. After purification, the catalytic domain was released by treatment with 1 mM APMA for 1 hour at 37° C., and then purified by zinc chelate chromatography.
Rat collagenase-3 was purified in active form from the culture media of uterine smooth muscle cells as described in Roswit, W. T. et al., Arch. Biochem. Biophys., 225, 285-295 (1983).
The matrix metalloprotease inhibitory activity of compounds of this invention in vitro was determined based on the hydrolysis of MCA-Pro-Leu-Gly-Leu-DPA-Ala-Arg-NH2 (Bachem, Inc.) at 37° C. as described in Knight, C. G., et al., FEBS Lett., 296, 263-266 (1992).
The matrix metalloprotease enzyme was diluted with assay buffer (50 mM Tricine pH 7.5, 200 mM NaCl, 10 mM CaCl2, and 0.005% Brij-35) containing 10 μmole of above substrate dissolved in DMSO. Compounds of the invention dissolved in DMSO or only DMSO (control samples) were added such that the final DMSO concentration in all assays was 2.5%. The fluorescence changes were monitored with a Perkin-Elmer LS-50B flourimeter using an excitation wavelength of 328 nm and an emission wavelength of 393 nm.

TNF-α = assay: Inhibition of LPS induced TNF-α production in mice in vivo; conditions: s.c. compound, LPS 50 μg/mouse i.p. 1 h later, blood after 1.5 h
Experimental: The activity of compounds of this invention in inhibiting the TNF-α release was determined, using a minor modification of the methods described in Zanetti, G.; Heumann, D., et. al., "Cytokine production after intravenous or peritoneal Gram-negative bacterial challenge in mice" J. Immunol., 148, 1890, (1992) and Sekut, L., Menius, J. A., et. al., "Evaluation if the significance of elevated levels of systemic and localized tumor necrosis factor in different animal models of inflammation" J. Lab. Clin. Med., 124, 813, (1994).
Female Balbic mice were anesthetized and injected subcutaneously with the test compounds dissolved in CMC vehicle or hydroxypropylmethyl cellulose based vehicle. Control animals received only the vehicle. After 1 h, LPS (50 μg/mouse, Sigma #13129, Sigma Chemical Co., St. Louis, Mo.) was injected intraperitoneally. After 1.5 h, blood was collected from the retro-rbital plexus region of the animals in a miicrotainer serum separator tube (Becton Dickinson, Cat. No. #5960, Becton Dickinson & Co., Franklin Lakes, N.J.). The sera was separated and the amount of TNF-α was determined using the EM-TNFA® kit (Endogen, Woburn, Mass.) by following the manufacturer's protocol.

[2] = tested on: collagen matrix of bovine nasal cartilage plugs; assay: Cartilage plug degradation in vivo (cartilage plug implant assay); conditions: female Lewis rats, implanted bovine nasal cartilage plugs, hydroxyproline content vs vehicle, 8 or 9 days
[3] = tested on: collagen matrix of cartilage explants; assay: Degradation of cartilage plug in vitro (hydroxyproline release); type: cell-based; conditions: bovine knee cartilage explants, IL-1-α 20 ng/ml, compounds at 10 to 300 nm, 21 days, hydroxyproline content vs control
Experimental: The ability of the compounds of this invention to inhibit the degradation of the collagen matrix (as judged by release of hydroxyproline) was determined by the cartilage plug degradation assay in vitro by following a slight modification of the method described in Spirito, S., Doughty, E., et al., "Metalloproteinase inhibitors halt collagen breakdown in IL-1 induced bovine nasal cartilage cultures" Inflamm. Res., 44, Supp. 2: S131-S132, (1995).
Cartilage explants prepared from freshly sacrificed bovine knee joints were added to the culture medium (Dubelco's modified eagle medium, Gibco #21063-001, Gibco BRL Products, Gaithersburg, Md.), without phenol red, but with HEPES, and L-glutamine and fungizone 2.5 μglml, gentamicin 50 μg/ml, penicillin 100 U/ml, and streptomycin 100 μg/ml). The cultures were stimulated with IL-1-α at a final concentration of 20 ng/ml. Compounds of Formula (I), were added at concentrations between 10 and 300 nm in DMSO. The control samples contained only IL-1-α. The cultures were incubated at 37° C. in an atmosphere of air with 6% CO2 for 21 days during which time the medium was changed twice/week. The cartilage plugs were removed, hydrolyzed and the hydroxyproline content was determined. The MMP inhibitory activity of test materials is the measure of the hydroxyproline content in the test group relative to the vehicle treated group (control group).

[4] = 37° C., pH 7.5, 2.5% DMSO; read-out: Collagenase-I IC50

SMILES: O=C(NO)[C@H](CSc1ccccc1)NS(=O)(=O)N1CCN(c2ccc(Cl)cn2)CC1 [compound 106, N-hydroxy-2-(R)-{[4-(5-chloropyridin-2-yl)piperazine-1-sulfonyl]amino}-3-(phenylthio)propionamide]
- IC50 (Collagenase-I; [4]): 223 nM
- inhibition at 10 µM [1]: 41%

SMILES: O=C(NO)[C@H]1CCCCN1S(=O)(=O)N1CCC(c2c[nH]c3c(F)c(F)c(F)c(F)c23)CC1 [compound 299, N-hydroxy-1-[4-(4,5,6,7-tetrafluoroindol-3-yl)piperdine-1-sulfonyl]piperidine-2-(R)-carboxamide]
- IC50 (Collagenase-III): 410 nM
- IC50 (Collagenase-I; [4]): > 50000 nM
- inhibition at 2 µM ([1]; MONO-MAC-6, 2 μM, read-out: TNF-α % inhibition, Conc. 2 μM): 90%
- TNF-α % inhibition (TNF-α): 52%

SMILES: CC(C)[C@@H](NS(=O)(=O)N1CCC(Oc2ccc(Cl)cn2)CC1)C(=O)NO [compound 100, N-hydroxy-2-(R)-{[4-(5-chloropyridin-2-yloxy)piperidine-1-sulfonyl]amino}-3-methybutyramide]
- % protection [2]: 40%
- % protection [3]: 68%

SMILES: CC(C)[C@@H](NS(=O)(=O)N1CCC(Oc2ccc(Cl)cc2)CC1)C(=O)NO [compound 59, N-hydroxy-2-(R)-{[4-(4-chlorophenoxy)piperidine-1-sulfonyl]amino}-3-methylbutyramide]
- % protection [2]: 58%
- % protection [3]: 54%
- IC50 (Collagenase-III): 0.18 nM

SMILES: CC(C)[C@@H](NS(=O)(=O)N1CCN(c2ccc(Cl)cn2)CC1)C(=O)NO [compound 50, N-hydroxy-2-(R)-{[4-(5-chloropyridin-2-yl)piperazine-1-sulfonyl]amino}-3-methylbutyramide]
- % protection [2]: 70%
- % protection [3]: 71%
- IC50 (Collagenase-III): 1.3 nM
- inhibition at 10 µM [1]: < 15%

SMILES: CC(C)[C@@H](NS(=O)(=O)N1CCN(c2ccc(Cl)cc2)CC1)C(=O)NO [compound 51, N-hydroxy-2-(R)-{[4-(4-chlorophenyl)piperazine-1-sulfonyl]amino}-3-methylbutyramide]
- % protection [2]: 45%
- % protection [3]: 35%
- IC50 (Collagenase-III): 2.6 nM

SMILES: CC(C)[C@@H](NS(=O)(=O)N1CCN(c2ccc(OCc3ccncc3)cc2)CC1)C(=O)O [compound 413, 2-(R)-{[4-(pyridin-4-ylmethyloxyphenyl)piperazine-1-sulfonyl]amino}-3-methylbutyric acid]
- IC50 (Collagenase-I; read-out: Collagenase-I IC50; 37° C., pH 7.5, 2.5% DMSO): 9300 nM
